Source: US20230410977A1, “METHODS AND MATERIALS FOR ASSESSING RADIATION EXPOSURE” (NUtech Ventures, priority 2020, published 2023)

What was measured:
[1] = tested on: mice exposed to 9.6 Gy 60Co-γ-radiation; assay: Thirty-day survival of mice given amifostine before 9.6 Gy 60Co-γ-radiation (cohort 3); assay type: in vivo, mouse
Protocol: (§1) Cohort three comprised whole blood samples from mice exposed to a single dose of 9.6 Gy ^60Co-γ-radiation at a rate of 0.6 Gy/minute in the presence or absence of drug intervention (50 mg/kg or 200 mg/kg amifostine). A total of 300 blood samples were collected from 60 mice divided into five groups (12 mice per group). The five groups correspond to: (1) amifostine dosage of 50 mg/kg without radiation exposure, (2) amifostine dosage of 200 mg/kg without radiation exposure, (3) amifostine dosage of 50 mg/kg with radiation exposure, (4) amifostine dosage of 200 mg/kg with radiation exposure, and (5) a radiation exposure without an amifostine treatment. Blood samples were collected at five time-points: at day −5 (D−5), at time of amifostine dosage, day −1 (D−1), day 1 (D1), day 5 (D5) and day 9 (D9). Amifostine was delivered through a subcutaneous injection.
Lastly, to evaluate the radioprotective impact of amifostine treatment, cohort three also contained mice that received a subcutaneous injection of either 50 mg/kg or 200 mg/kg of amifostine 30 minutes (+10 minutes) before exposure to radiation. A total of 300 samples were collected from 60 mice divided into five groups (n=12): (1) 50 mg/kg amifostine treatment without radiation exposure (Am50), (2) 200 mg/kg amifostine treatment without radiation exposure (Am200), (3) only 9.6 Gy radiation exposure (RAD), (4) 9.6 Gy radiation exposure with a 50 mg/kg amifostine treatment (RAD+Am50), and (5) 9.6 Gy radiation exposure with a 200 mg/kg amifostine treatment (RAD+Am200). Serum samples were collected from each group at five different time points. Serum collected at five days and one day prior to radiation exposure were used as controls, and serum samples for metabolomics analysis were collected at 1, 5 and 9 days post-irradiation (Table 1).
Furthermore, an incremental decrease in survival began at day 11.

[2] = tested on: mouse whole blood metabolome; assay: Combined NMR and LC-MS metabolomics of mouse whole blood, metabolic time trajectories (cohort 3); assay type: in vivo; details: for NMR metabolic time trajectory of whole blood after radiation: PLS Q2 against D−5 baseline
Protocol: as §1
Mouse (n=236) and NHP (n=70) serum samples, and mouse blood samples (n=300) were simultaneously prepared for LC-MS and NMR analysis as shown in FIG. 1C. 2.0% by volume of NaN3 was added to each serum or blood sample to avoid bacterial growth. The protein component was precipitated by adding 100 μL (2×) of methanol to 50 μL of serum or blood. Deoxygenated methanol was used for the blood preparation to avoid unnecessary oxidation of the red blood cells. Methanol was purged of oxygen by bubbling in nitrogen gas for 30 minutes.
The 1:2 mixtures were then vortexed for 10 seconds. Serum samples were incubated at room temperature for 5 minutes. Blood samples were sonicated in a water bath for 10 minutes at 4° C., followed by incubation at −20° C. for 20 minutes. The samples were then centrifuged at 15,000×g for 20 minutes at 4° C. to pellet the proteins. The supernatant was collected, transferred to an Eppendorf tube, and centrifuged again at 15,000×g for 5 minutes at 4° C. The supernatant was then divided 20% and 80% for LC-MS and NMR samples, respectively. Samples were snap-frozen in liquid nitrogen. Methanol was evaporated by speed vacuum centrifugation (SpeedVac R Plus, Savant) and water was removed by lyophilization using FreeZone™ (Labconco, Kansas City, MO).
Dried serum or blood samples were reconstituted using 50 μL of 50 mM phosphate buffer in 100% D20 at pH 7.2 (uncorrected) with 50 μM TMSP as an NMR chemical shift reference and internal standard. The samples were centrifuged at 15,000×g for 20 minutes at 4° C. to remove any particulates, and the supernatant was transferred to 1.7 mm NMR tube for data acquisition. All NMR experiments were collected at 298K with a Bruker AVANCE III HD 700 MHz spectrometer equipped with a 5 mm quadruple resonance QCI-P cryoprobe (^1H, ^13C, ^15N and ^31P) with z-axis gradients. A SampleJet automated sample changer with Bruker ICON-NMR software was used to collect all data. […]

SMILES: NCCCNCCSP(=O)(O)O [amifostine, 2-(3-aminpropyl) aminoethylphosphorothioate]
- survival at 30 days post-irradiation ([1]; amifostine 50 mg/kg subcutaneous, 30 minutes before 9.6 Gy, untreated irradiated animals 100% died): 40%
- day at which incremental decrease in survival began ([1]; amifostine 50 mg/kg, 9.6 Gy): 11 days
- animal survival 30 days post-irradiation ([1]; amifostine 200 mg/kg subcutaneous, 30 minutes prior to 9.6 Gy, untreated irradiated animals 100% died): 100%
- NMR metabolic time trajectory of whole blood after radiation ([2]; amifostine 50 mg/kg, 9.6 Gy): could not be discriminated from untreated controls
- NMR metabolic time trajectory of whole blood after radiation ([2]; amifostine 200 mg/kg, 9.6 Gy, p=1.60×10^−7): reversed progression back towards the baseline norm (D−5) by D9
- recovery of dysregulated metabolic pathways ([2]; amifostine 200 mg/kg, between D5 and D9 after radiation exposure): recovery of pathways including lipid metabolism, glycolysis, and TCA activity as well as energy and amino acid metabolism
- LC-MS metabolic time trajectory of whole blood after radiation ([2]; amifostine treatment, 9.6 Gy, p=2.10×10^−2): divergence of trajectories from D5 to D9
